The values below are quoted from earlier work in patent publication US11582972B2, “Controlled-diffusion semiochemical composition” (MELCHIOR MATERIAL AND LIFE SCIENCE FRANCE, priority 2017, dated 2023).

The test system of the data set is Metamasius hemipterus sericeus. As to conditions: for attractiveness: high doses: ethyl acetate >800 mg/d, ethyl propionate >300 mg/d, ethyl butyrate >100 mg/d.

Turning to `CCCC(=O)OCC` [ethyl butyrate], the attractiveness result is “as attractive as 250 g of sugarcane”. In the case of `CCOC(C)=O` [ethyl acetate], the attractiveness result is recorded as “as attractive as 250 g of sugarcane”. Moreover, the “synergistic effect with pheromones” value (dose >650 mg/d, in the field) is on record as “synergistic effect with pheromones equivalent to 250 g of sugarcane”. For the compound `CCOC(=O)CC` [ethyl propionate], the attractiveness result is “as attractive as 250 g of sugarcane”.
